Where a chain is given by its changes, count along the chain named. Structures can show the parent of a compound that is named as a salt. Where two headings read alike, the source gives them in different places.
Columns and labels:
[1] = molecular target: T1, AR (cytosol from LnCaP cells) (Homo sapiens, UniProt P10275, T878A); experiment: AR binding assay (3H-R1881 displacement)
T1 sequence (P10275 1-920 T878A): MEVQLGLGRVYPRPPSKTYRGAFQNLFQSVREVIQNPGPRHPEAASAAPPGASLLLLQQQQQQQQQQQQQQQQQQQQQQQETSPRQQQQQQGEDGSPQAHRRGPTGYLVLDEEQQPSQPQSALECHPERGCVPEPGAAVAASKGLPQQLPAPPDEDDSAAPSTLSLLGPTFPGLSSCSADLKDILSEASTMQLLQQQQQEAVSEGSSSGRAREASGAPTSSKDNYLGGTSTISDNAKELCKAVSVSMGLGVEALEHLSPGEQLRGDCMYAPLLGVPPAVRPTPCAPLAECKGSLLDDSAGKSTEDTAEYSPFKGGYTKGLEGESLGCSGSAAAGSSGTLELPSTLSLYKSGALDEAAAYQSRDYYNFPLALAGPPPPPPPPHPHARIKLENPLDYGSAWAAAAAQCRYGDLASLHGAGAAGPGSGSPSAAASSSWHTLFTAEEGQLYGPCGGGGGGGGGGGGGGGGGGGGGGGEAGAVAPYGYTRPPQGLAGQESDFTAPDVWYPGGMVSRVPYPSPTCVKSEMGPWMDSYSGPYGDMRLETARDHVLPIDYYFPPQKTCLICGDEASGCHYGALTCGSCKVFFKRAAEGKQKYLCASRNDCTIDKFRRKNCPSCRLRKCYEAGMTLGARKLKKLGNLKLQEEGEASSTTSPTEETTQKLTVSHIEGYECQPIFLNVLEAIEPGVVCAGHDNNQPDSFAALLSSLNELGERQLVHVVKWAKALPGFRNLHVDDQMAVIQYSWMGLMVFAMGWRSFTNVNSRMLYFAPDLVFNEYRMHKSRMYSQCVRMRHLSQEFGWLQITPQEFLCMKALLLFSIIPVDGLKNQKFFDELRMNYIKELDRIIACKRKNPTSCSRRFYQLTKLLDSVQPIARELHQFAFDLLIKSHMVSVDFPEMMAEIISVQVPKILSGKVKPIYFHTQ
Protocol: The plate was then centrifuged at 3000 rpm for 30 minutes at 4° C.

[2] = molecular target: T2, full-length androgen receptor (HEK293 cells stably expressing) (Homo sapiens, UniProt P10275); experiment: AR antagonism assay (luciferase reporter)
T2 sequence (P10275 1-920): T1 sequence (P10275 1-920 T878A) with A878T

LNCap cells = experiment: Cell viability assay (CellTiterGlo); type: cell-based; conditions: Homo sapiens, 144 h
[3] = molecular target: T3, ligand binding domain of the glucocorticoid receptor (HEK293 cells stably expressing) (Homo sapiens, UniProt P04150); experiment: GR antagonism assay (luciferase reporter)
T3 sequence (P04150 524-758 limits assumed): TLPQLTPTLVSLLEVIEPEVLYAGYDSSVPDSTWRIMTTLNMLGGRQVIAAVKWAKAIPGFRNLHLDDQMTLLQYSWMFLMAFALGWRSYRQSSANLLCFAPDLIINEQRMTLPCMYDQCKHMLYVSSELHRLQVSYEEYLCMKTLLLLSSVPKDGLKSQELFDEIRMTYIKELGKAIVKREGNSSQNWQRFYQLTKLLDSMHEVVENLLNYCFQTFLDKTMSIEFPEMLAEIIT
Protocol: HEK293 cells stably expressing the ligand binding domain of the glucocorticoid receptor were seeded at a density of 40000 cells/well in the assay plate. The assay plate was then incubated at 37° C., 5% CO2 for 30 minutes. Dexamethasone was added to the assay plate at 1.5 nM final concentration and the assay plate incubated at 37° C., 5% CO2 for 20 h. After the incubation period, Dual-glo luciferase reagent was added to the assay plate and mixed at room temperature for 20 minutes on an orbital shaker, before reading out on the En Vision plate reader. 50 μL of Stop & Glo reagent was added to assay plate, mixed at room temperature for 20 minutes, and read on the Envision plate reader.

22Rv1 cells = experiment: Cell viability assay (CellTiterGlo); conditions: Homo sapiens, 22Rv1, 144 h, read-out: 22RV1 (IC50, nM)
IEC6 cells = experiment: Cell viability assay (CellTiterGlo); conditions: Rattus norvegicus, IEC-6, 144 h, read-out: IEC-6 (IC50, nM)
[4] = molecular target: T4, GR (cytosol from IM-9 cells) (Homo sapiens, UniProt P04150); experiment: GR binding assay (3H-Dexamethasone displacement)
T4 sequence (P04150 1-777): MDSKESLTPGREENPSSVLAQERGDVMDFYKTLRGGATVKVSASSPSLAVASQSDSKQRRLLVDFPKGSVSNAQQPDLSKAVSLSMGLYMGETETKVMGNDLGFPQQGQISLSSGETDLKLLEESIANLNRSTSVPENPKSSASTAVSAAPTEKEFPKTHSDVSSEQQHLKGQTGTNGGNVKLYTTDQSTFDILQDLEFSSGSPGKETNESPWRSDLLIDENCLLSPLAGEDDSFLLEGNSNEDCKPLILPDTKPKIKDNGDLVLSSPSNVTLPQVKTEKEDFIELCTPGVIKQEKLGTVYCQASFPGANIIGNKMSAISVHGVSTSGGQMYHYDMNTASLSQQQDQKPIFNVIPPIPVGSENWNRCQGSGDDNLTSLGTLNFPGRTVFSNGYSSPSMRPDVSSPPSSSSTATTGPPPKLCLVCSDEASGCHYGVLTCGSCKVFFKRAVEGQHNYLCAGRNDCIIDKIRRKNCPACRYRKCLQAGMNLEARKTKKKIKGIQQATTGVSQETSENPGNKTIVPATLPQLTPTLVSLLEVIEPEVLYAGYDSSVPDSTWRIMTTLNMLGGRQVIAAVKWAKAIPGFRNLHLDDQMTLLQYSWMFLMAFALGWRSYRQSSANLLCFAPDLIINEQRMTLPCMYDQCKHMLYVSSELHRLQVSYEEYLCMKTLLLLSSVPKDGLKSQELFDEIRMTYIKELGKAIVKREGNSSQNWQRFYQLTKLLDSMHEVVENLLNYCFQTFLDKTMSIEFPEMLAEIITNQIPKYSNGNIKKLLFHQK

T47D cells = experiment: Cell viability assay (CellTiterGlo); type: cell-based; conditions: Homo sapiens, 144 h, 6 days incubation, CellTiterGlo, read-out: T47D (IC50)
[5] = 6 days incubation, CellTiterGlo, read-out: LNCap (IC50)

CC[C@@]1(O)C(=O)OCc2c1cc1n(c2=O)Cc2cc3c(CN(C)C)c(OC(=O)N4C[C@H](C)N(C(=O)C5CCN(c6ccc(C(=O)N[C@H]7CC[C@H](Oc8ccc(C#N)c(Cl)c8C)CC7)nn6)CC5)C[C@H]4C)ccc3nc2-1 [Compound No. 21, (S)-10-((Dimethylamino)methyl)-4-ethyl-4-hydroxy-3,14-dioxo-3,4,12,14-tetrahydro-1H-pyrano[3′,4′:6,7]indolizino[1,2-b]quinolin-9-yl (2R,5S)-4-(1-(6-(((1r,4r)-4-(3-chloro-4-cyano-2-methylphenoxy)cyclohexyl)carbamoyl)pyridazin-3-yl)piperidine-4-carbonyl)-2,5-dimethylpiperazine-1-carboxylate Formate]
IC50 [1]: < 10 nM
IC50 [2]: > 1000 nM
IC50 (LNCap cells; read-out: LNCap (IC50, nM)): 10 to 100 nM
IC50 [3]: > 1000 nM
IC50 (22Rv1 cells): 101 to 1000 nM
IC50 (IEC6 cells): > 1000 nM
IC50 [4]: > 1000 nM

CC[C@@]1(O)C(=O)OCc2c1cc1n(c2=O)Cc2cc3c(CN(C)C)c(OC(=O)N4CCN(CC5CCN(c6ccc(C(=O)N[C@H]7CC[C@H](N(C)c8ccc(C#N)c(Cl)c8)CC7)nn6)CC5)CC4)ccc3nc2-1 [Compound No. 18, (S)-10-((Dimethylamino)methyl)-4-ethyl-4-hydroxy-3,14-dioxo-3,4,12,14-tetrahydro-1H-pyrano[3′,4′:6,7]indolizino[1,2-b]quinolin-9-yl 4-((1-(6-(((1r,4r)-4-((3-chloro-4-cyanophenyl)(methyl)-amino)cyclohexyl)carbamoyl)pyridazin-3-yl)piperidin-4-yl)methyl)piperazine-1-carboxylate]
IC50 [1]: 10 to 100 nM
IC50 [2]: 101 to 1000 nM
IC50 (LNCap cells; read-out: LNCap (IC50, nM)): 10 to 100 nM
IC50 [3]: 101 to 1000 nM
IC50 (22Rv1 cells): 10 to 100 nM
IC50 (IEC6 cells): 101 to 1000 nM
IC50 [4]: 101 to 1000 nM

CC[C@@]1(O)C(=O)OCc2c1cc1n(c2=O)Cc2cc3c(CN4CCN(CC5CCN(c6ccc(C(=O)N[C@H]7CC[C@H](N(C)c8ccc(C#N)c(Cl)c8)CC7)nn6)CC5)CC4)c(OC)ccc3nc2-1 [Compound 40, N-((1r,4r)-4-((3-chloro-4-cyanophenyl)(methyl)amino)cyclohexyl)-6-(4-((4-(((S)-4-ethyl-4-hydroxy-9-methoxy-3,14-dioxo-3,4,12,14-tetrahydro-1H-pyrano[3′,4′:6,7]indolizino[1,2-b]quinolin-10-yl)methyl)piperazin-1-yl)methyl)piperidin-1-yl)pyridazine-3-carboxamide formic acid salt]
IC50 (T47D cells): 10 to 100 nM
IC50 [1]: 10 to 100 nM
IC50 [2]: > 1000 nM
IC50 (LNCap cells; [5]): 101 to 1000 nM
IC50 (IEC6 cells): 101 to 1000 nM

CC[C@@]1(OC(=O)N2CCN(CCCCCCN(C)c3ccc([C@H]4C[C@@]5(C)[C@@H](CC[C@]5(OC(C)=O)C(C)=O)[C@@H]5CCC6=CC(=O)CCC6=C54)cc3)CC2)C(=O)OCc2c1cc1n(c2=O)Cc2cc3cc(O)ccc3nc2-1 [Compound 57, (S)-4-ethyl-9-hydroxy-3,14-dioxo-3,4,12,14-tetrahydro-1H-pyrano[3′,4′:6,7]indolizino[1,2-b]quinolin-4-yl 4-(6-((4-((8S,11R,13S,14S,17R)-17-acetoxy-17-acetyl-13-methyl-3-oxo-2,3,6,7,8,11,12,13,14,15,16,17-dodecahydro-1H-cyclopenta[a]phenanthren-11-yl)phenyl)(methyl)amino)hexyl)piperazine-1-carboxylate]
IC50 (T47D cells): 10 to 100 nM
IC50 [1]: 10 to 100 nM
IC50 (LNCap cells; [5]): 101 to 1000 nM
IC50 (IEC6 cells): > 1000 nM
IC50 [4]: < 10 nM

CC[C@@]1(O)C(=O)OCc2c1cc1n(c2=O)Cc2cc3c(CN4CCN(C(=O)C5CCN(c6ccc(C(=O)N[C@H]7CC[C@H](Oc8ccc(C#N)c(Cl)c8C)CC7)nn6)CC5)CC4)c(OC(=O)N4CCN(C)CC4)ccc3nc2-1 [Compound 27, (S)-10-((4-(1-(6-(((1r,4r)-4-(3-Chloro-4-cyano-2-methylphenoxy)cyclohexyl)carbamoyl)-pyridazin-3-yl)piperidine-4-carbonyl)piperazin-1-yl)methyl)-4-ethyl-4-hydroxy-3,14-dioxo-3,4,12,14-tetrahydro-1H-pyrano[3′,4′:6,7]indolizino[1,2-b]quinolin-9-yl 4-methylpiperazine-1-carboxylate Formate]
IC50 [1]: < 10 nM
IC50 [2]: 101 to 1000 nM
IC50 (LNCap cells; read-out: LNCap (IC50, nM)): 10 to 100 nM
IC50 [3]: > 1000 nM
IC50 (22Rv1 cells): 101 to 1000 nM
IC50 [4]: 10 to 100 nM

CC[C@@]1(O)C(=O)OCc2c1cc1n(c2=O)Cc2c-1nc1cc(F)c(C)c3c1c2[C@@H](N(C)C(=O)COCCC(=O)N1CCC(CN(C)c2ccc([C@H]4C[C@@]5(C)[C@@H](CC[C@]5(OC(C)=O)C(C)=O)[C@@H]5CCC6=CC(=O)CCC6=C54)cc2)CC1)CC3 [Compound 54]
IC50 (T47D cells): 101 to 1000 nM
IC50 (LNCap cells; [5]): 10 to 100 nM
IC50 (IEC6 cells): 101 to 1000 nM

— US20260102501A1, “ANTI-CANCER NUCLEAR HORMONE RECEPTOR-TARGETING COMPOUNDS” (Nuvation Bio Inc., priority 2022, published 2026)
